# Laboratory results published in article PMC10515483, “Structure–Reactivity Studies of 2-Sulfonylpyrimidines Allow Selective Protein Arylation” (Bioconjugate Chemistry, 2023).
# Experiments:
# [1] = GSH arylation rate constants (NMR; UV-vis for fast warheads); format: physicochemical; parameters: key to rate constant (k) for the reaction with GSH / k: NR = no reaction; details: for k: Table S8, rate constants obtained at pH = 7; for k change (vs ref): ratio to rate constant of 4q, acceleration (+) or deceleration (-); for k/kref / ΔΔG≠1exp: relative to 4q; for ΔΔG≠1exp: via -RTln(k/kref); for times less reactive than 4q: GSH
# Source text: We employed nuclear magnetic resonance (NMR) and UV–vis to quantify the reactivity of our 2-SP derivatives and other representative electrophiles (Figure 2) against cysteine. NMR allowed straightforward determination of reaction rate constants through dual monitoring of the consumption of the warhead and formation of the product by integration of their respective NMR signals (Figures S1–S3). It simultaneously provided a direct readout on reaction specificity and hydrolytic stability of the warhead. All measurements were carried out in KPi buffer in the presence of 5% d^6-dmso, which is generally well-tolerated by a wide range of proteins in in vitro studies. N-acetylcysteine methylester (NACME) and L-glutathione (GSH) are useful model cysteine nucleophiles for in vitro studies of electrophilic agents.[32] Mixing reference electrophile 2-methylsulfonylpyrimidine (4q) with NACME or GSH in a 1:10 ratio (pseudo-first-order conditions) allowed extraction of accurate and reproducible second order rate constants (k).
# Figure 3 In vitro determination of electrophilic reactivity of compounds. (A) NMR assay setup for warhead/GSH reaction rate constant determination and chemoselectivity monitoring, over a 6 h time scale. Purple bead = GSH. Hydrolytic stability was determined in the same way over 36 h. d^4-Trimethylsilylpropanoate (TMSP, blue box) was used as an internal standard for monitoring the warhead solubility. Second-order reaction rate constants (k) were obtained from their pseudo-first-order counterparts (k′), by time-dependent normalized integration of the disappearing warhead signals. […] (B) Experimental second-order rate constants (y axis, log10 scale) for the reaction of representative 2-SP derivatives (left, 11 out of ca. 40 examples) and previously reported heteroarylsulfones (right) with GSH in a KPi buffer, pH 7.0, 20 °C. All rate constants were calculated as an average of at least two independent measurements. Numerical values and standard deviations at both pH 7.0 and 6.5, along with a full list of 2-SPs and other electrophile types tested, are presented in Tables S2–S6 and Figure S4. The horizontal dashed line marks the reaction rate of 2-methylsulfonylpyrimidine at pH 7.0, as a reference when comparing with other reagents (see main text).
# To establish an accurate structure–reactivity profile of 2-SP reagents, we systematically determined their reaction rate constants for the arylation of GSH by NMR, at pH 7.0 and 6.5. This was a prerequisite to (i) quantify the influence of substitution on reaction rates; (ii) accurately assess the tunability and chemoselectivity of 2-SPs for cysteine arylation; (iii) determine the influence of pH on the reaction rates to further inform on the precise reaction mechanism; and (iv) benchmark the overall performance of 2-SPs with those of previously reported fast reacting heteroarylsulfones and other common cysteine reactive warheads (Figure 2C,D).
# [2] = Hydrolytic stability in KPi buffer without thiol (NMR); format: physicochemical; details: for % degradation: over 12 hours, 50 mM KPi, footnote a: crashing out of solution, no degradation product; for hydrolysis in aqueous buffer (in words): buffer in the absence of GSH
# Procedure: NMR studies: rate constant determination and hydrolytic stability. 850 µL of 50 mM Kpi buffer solution (pH 8.2 or 7), 20 µL of the appropriate pyrimidine stock s olution (100 mM in DMSO -d6), 20 µL of TMSP stock solution (22.2 mM in DI water), 30 µL DMSO -d6, and 80 µL of GSH stock solution (0.25 M in DI water, reactivity only) were successively added/mixed at room temperature, final pH 7.0 or 6.5 (Table S1). 600 µL of this freshly prepared solution was poured into an NMR tube and immediately […]
# transferred to the NMR instrument for acquisition. 1H spectra (16 scans) were recorded every 10 minutes under water suppression conditions. Following acquisition, spectra were analysed using […]
# order reaction rate constants (k’).
# [3] = Solubility in KPi buffer by NMR with TMSP internal standard; details: 50 mM KPi aqueous buffer, pH 7, aqueous with cosolvent or surfactant or cyclodextrin, kinetic from dmso stock
# Source text: Stability and solubility assays
# TopSpin. Normalised integrations of the pyrimidine aromatic 1H signals in the starting material and
# product were plotted as a function of time (s), using the TMSP peak as standard for integral
# calibration/normalisation and monitoring of compound solubility, allowing extraction of pseudo first
# order reaction rate constants (k’). Second order rate constants (k) were back calculated from the ratio
# of the pseudo first counterparts and the concentration of thiol in solution.
# was confirmed by formation of a single S-arylated product (characteristic 2-alkylthioether signals),
# concomitant with formation of the sulfinic acid by -product (leaving group). Hydrolytic stability
# assessment was performed at pH 7.0 and pH 8.2 in a similar manner, in the absence of thiol.
# Chemoselectivity. Similarly, but replacing GSH by other amino acids , reference 2-
# methylsulfonylpyrimidine 4q in 50 mM KPi (pH 8.2) was incubated with 10 equivalents of either Boc-
# Lys-OH, L-ser-OMe, N-Ac-Tyr-OH or Proline were used.
# [4] = pH 6.5, by NMR, KPi buffer, 5% DMSO-d6
# [5] = pH 7.0, by NMR, KPi buffer, 5% DMSO-d6
Structure (SMILES),melting point [°C],% degradation ([2]; pH 8.2) [%],solubility [3] [µM],% degradation ([2]; pH 7.0) [%],"rate constant (k) for the reaction with GSH [1, 4]","rate constant (k) for the reaction with GSH [1, 5]",k [1],k change (vs ref) ([1]; pH 7.0),k/kref [1],ΔΔG≠1exp [1] [kcal/mol],"second order rate constant k with GSH ([1]; pH 7.0, KPi buffer)",hydrolysis in aqueous buffer (in words) [2],"rate constant (k) for the reaction with GSH ([1]; pH 6.5, measured by UV titrations) [M⁻¹ s⁻¹]","rate constant (k) for the reaction with GSH ([1]; pH 7.0, measured by UV titrations) [M⁻¹ s⁻¹]",times less reactive than 4q ([1]; pH 7.0)
CSc1ncc(-c2ccccc2)cn1 [2p],98,,,,NR,NR,,,,,,,,,
CSc1ncc([N+](=O)[O-])cn1 [2w],84,,,,0.00025 ± 0.00016 M⁻¹ s⁻¹,0.0034 ± 0.0016 M⁻¹ s⁻¹,,,,,,,,,
"CS(=O)(=O)c1nnnn1-c1ccccc1 [compound 7, 1-phenyl 5-methylsulfonyl tetrazole, reference compound]",,8,≥ 2000,< 5,,,,+170 fold,,,≈ 4.3 M^–1 s^–1,,,,
"COc1nc(OC)nc(S(C)(=O)=O)n1 [compound 19, 2,4-dimethoxy-6-(methylsulfonyl)-1,3,5-triazine]",,,,,,,unstable,,,,,rapid hydrolysis in aqueous buffers or by trace/ambient moisture,,,
CSc1ncc(C(=O)O)cn1 [2v],251,,,,NR,NR,,,,,,,,,
"Cc1cc(C)c([N+](=O)[O-])c(S(C)(=O)=O)n1 [compound 12, 4,6-dimethyl-2-(methylsulfonyl)-3-nitropyridine, reference compound]",,< 5,≥ 2000,< 5,0.00075 ± 0.00025 M⁻¹ s⁻¹,0.0028 ± 0.00025 M⁻¹ s⁻¹,0.0028 M⁻¹ s⁻¹,-9 fold,0.11,1.29,,,,,ca. 5 times
"Cc1cc(C)c(C#N)c(S(C)(=O)=O)n1 [compound 11, 4,6-dimethyl-2-(methylsulfonyl)nicotinonitrile, reference compound]",,,≥ 2000,,0.00045 ± 5e-05 M⁻¹ s⁻¹,0.0023 ± 0.00025 M⁻¹ s⁻¹,,-11 fold,,,,,,,ca. 5 times
"CS(=O)(=O)c1nc2ccccc2s1 [compound 9, 2-Methysulfonylbenzothiazole, reference compound]",,< 5,≥ 2000,15,0.063 ± 0.023 M⁻¹ s⁻¹,0.23 ± 0.035 M⁻¹ s⁻¹,0.23 M⁻¹ s⁻¹,+9 fold,9.2,-1.31,≈ 0.23 M^–1 s^–1,,,,
CSc1ncc(I)cn1 [2u],104,,,,NR,NR,,,,,,,,,

# More lines, main results first:
melting point [°C],% degradation ([2]; pH 8.2) [%],solubility [3] [µM],% degradation ([2]; pH 7.0) [%],Structure (SMILES),"rate constant (k) for the reaction with GSH [1, 4]","rate constant (k) for the reaction with GSH [1, 5]",k [1],k change (vs ref) ([1]; pH 7.0),k/kref [1],ΔΔG≠1exp [1] [kcal/mol],"second order rate constant k with GSH ([1]; pH 7.0, KPi buffer)",hydrolysis in aqueous buffer (in words) [2],"rate constant (k) for the reaction with GSH ([1]; pH 6.5, measured by UV titrations) [M⁻¹ s⁻¹]","rate constant (k) for the reaction with GSH ([1]; pH 7.0, measured by UV titrations) [M⁻¹ s⁻¹]",times less reactive than 4q ([1]; pH 7.0)
,< 5,≥ 2000,,Cc1cnc(S(C)(=O)=O)nc1 [4o],NR,0.0017 ± 0.0015 M⁻¹ s⁻¹,0.0017 M⁻¹ s⁻¹,-15 fold,0.068,1.6,,,,,
113,,~130,,CS(=O)(=O)c1ncc([N+](=O)[O-])cn1 [4w],,,,"+1,880 fold",,,,"partial, slow hydrolysis",15 ± 0.4,47 ± 1,
,7,≥ 2000,,CS(=O)(=O)c1ncc(Cl)cn1 [4s],0.027 ± 0.012 M⁻¹ s⁻¹,0.19 ± 0.11 M⁻¹ s⁻¹,0.19 M⁻¹ s⁻¹,+8 fold,7.6,-1.2,,,,,
138,,,,CS(=O)(=O)c1ncc(N)cn1 [4m],NR,NR,,,,,< 5.0 × 10^–5 M^–1 s^–1,,,,
